# What was measured:
# CD4+ T cells from PBMC = experiment: IFN-γ ELISpot, PBMC-derived in vitro expanded CD4+ T cell lines; type: cell-based, human; parameters: key to T cell recognition by PBMC from a T1D donor (mark E) / T cell recognition by PBMC from a T1D donor: E: T cell recognition by PBMC from a T1D donor was tested and verified; see Figure 5; conditions: for T1D Donor T cell response / non-T1D Donor T cell response: PBMC T cell lines, responding donors/donors tested; for T cell recognition by PBMC from a T1D donor / T cell recognition by PBMC from a T1D donor (mark E): MHC-II peptides; for T cell recognition by PBMC from a T1D donor: superscript E on the peptide, G = verified with QBL cells; for T cell recognition by PBMC from a T1D donor (mark E): tested and verified, see Figure 5; for IFN-γ ELISpot response of expanded CD4 T cells: control donor LSLP-153, line expanded with megapool HPAP-DR3 + SEC-DR3, tested with individual peptides (Figure S5C)
# CD8+ T cells from PBMC = experiment: IFN-γ ELISpot, PBMC-derived in vitro expanded CD8+ T cell lines; type: cell-based, human; conditions: SEC (Secretory) A2 Peptides Set; PBMC T cell lines; responding donors/donors tested
# [1] = tested on: islet-derived T cell lines; experiment: Cytokine bead array (IFN-γ, TNF-α, IL-10), combined islet-derived T cell lines from donors with T1D
# Experimental: Live pancreas slices (150–200 μm thick) were provided by nPOD. […] Ten slices were digested with 1 mg/mL collagenase-P (Sigma) in PBS at 37°C with shaking with a magnetic stir bar, with tissue dispersal visually monitored. After washing, islets were enriched by hand-picking, and single-islet-derived T-cell lines generated as described[51] with modifications. Single islets were plated in wells of 96 well round bottom plates (CoStar) on irradiated (5000 rads) allogeneic PBMC with AIM-V media (Thermo Fisher Scientific) supplemented with 2 mM L-glutamine, 5 mM HEPES, and 100 U/ml penicillin and 100 μg/mL streptomycin, 0.1 mM each non-essential amino acids, 1 mM sodium pyruvate, and 5% heat-inactivated human male AB serum (Grifols Diagnostic) with 5 μg/mL each of anti-CD3, anti-CD28 (BioLegend), anti-PD-1 (ligand blocking clone EH12.1, BD Biosciences) and anti-Fas (clone SM1/23: Thermo Fisher Scientific) with 20 U/ml IL-2, and 10 ng/mL IL-15 (R&D), and 50 nM mifepristone (Thermo Fisher Scientific). The lymphocytic outgrowth from individual islets was collected, re-plated, allowed to expand with IL-2 and IL-15, and cryopreserved in early passage (P1-P3). For these experiments, 7–10 T cell lines derived from single islets from each donor were combined. Each combined T cell line contained either >60% CD4 or CD8 T cells. For some experiments in order to enriched for any reactive T cells, combined islet-derived T cell lines were stimulated with individual peptides pools with the inclusion of 5 μg/mL soluble anti-CD28 (BD Biosciences), fed with 20 U/mL recombinant IL-2 (Proleukin) and recombinant 10 ng/mL IL-15 (R&D Systems) on Day 1, allowed to rest for 4–6 days, and then re-tested for reactivity to that peptide pool.
# For islet-derived combined T cellana lines, either irradiated A*02:01-Hmy.2B-LCL or DRB1*03:01-expressing QBL B-LCL (Millipore Sigma) were pulsed for 2 h with indicated pools of peptides (each peptide at 2.5 μg/mL), washed and then co-cultured at 2x10^4/cells well with combined T cell lines at 5x10^4/cell in 96-well round bottom plates (CoStar) in 5%, heat-inactivated 5% human male AB serum (Grifols Diagnostic) in AimV (ThermoFisher) supplemented with 10 mM HEPES buffer, 2 mM L-glutamine, and 100 U/100 μg/ml penicillin/streptomycin (ThermoFisher) and 2.5 μg/mL soluble anti-CD28 (BD BioSciences). On Day 1, 20 U/mL recombinant IL-2 (Proleukin) and recombinant and 10 ng/mL IL-15 (R&D Systems) was added to all conditions.
# [2] = SEC (Secretory) DR3 Peptides Set
# [3] = donor 6551, cytokine bead array, 48 h (Figures 6A–6C)
# [4] = PTM and unmodified native Pool Peptides (pool PTM 1), long peptides
sequence,measurement,setting,value
LEKDIISDTSGDFRK [compound 8],T1D Donor T cell response,CD4+ T cells from PBMC; DR3/DQ Set Peptides,0/4
same,non-T1D Donor T cell response,CD4+ T cells from PBMC; DR3/DQ Set Peptides,0/2
LNKSINPDEAVAYGAA,T cell recognition by PBMC from a T1D donor,CD4+ T cells from PBMC,LNKS INPDEAVAY GAA ^ E
LNKSINPDEAVAYGAA [peptide 15],T1D Donor T cell response,CD4+ T cells from PBMC; DR3/DQ Set Peptides,1/4
same,non-T1D Donor T cell response,CD4+ T cells from PBMC; DR3/DQ Set Peptides,0/2
NPAEFVVNTSNAGAG,T cell recognition by PBMC from a T1D donor (mark E),CD4+ T cells from PBMC,NPAE FVVNTSNAG AG ^ E
NPAEFVVNTSNAGAG [compound 22],T1D Donor T cell response,CD4+ T cells from PBMC; DR3/DQ Set Peptides,0/4
same,non-T1D Donor T cell response,CD4+ T cells from PBMC; DR3/DQ Set Peptides,0/2
NPANPAILSEASAPIPHDG [compound 27],T1D Donor T cell response,CD4+ T cells from PBMC; DR3/DQ Set Peptides,0/4
same,non-T1D Donor T cell response,CD4+ T cells from PBMC; DR3/DQ Set Peptides,0/2
NYPSLELDKMAHG,T cell recognition by PBMC from a T1D donor (mark E),CD4+ T cells from PBMC,NYPSLELDKMAHG ^ E
QDPELPDKNMFTINRNTGVIS,T cell recognition by PBMC from a T1D donor (mark E),CD4+ T cells from PBMC,QDPELPDKNM FTINRNTGV IS ^ E
QDPELPDKNMFTINRNTGVIS [compound 29],T1D Donor T cell response,CD4+ T cells from PBMC; DR3/DQ Set Peptides,2/4
same,non-T1D Donor T cell response,CD4+ T cells from PBMC; DR3/DQ Set Peptides,0/2
QSIEGGAHEGLQHLGP,T cell recognition by PBMC from a T1D donor,CD4+ T cells from PBMC,QS IEGGAHEGL QHLGP ^ E
"RPLNEQIAEAEEED [compound 187, secretory hormone eluted peptide from SCG3, pool SEC DR3]",T1D Donor T cell response,CD4+ T cells from PBMC; [2],0/4
same,non-T1D Donor T cell response,CD4+ T cells from PBMC; [2],1/4
same,IFN-γ ELISpot response of expanded CD4 T cells,CD4+ T cells from PBMC,IFN-γ responses
RQRYEILTPNSIPK,T cell recognition by PBMC from a T1D donor (mark E),CD4+ T cells from PBMC,RQR YEILTPNS IPK ^ E
RQRYEILTPNSIPK [compound 26],T1D Donor T cell response,CD4+ T cells from PBMC; DR3/DQ Set Peptides,2/4
same,non-T1D Donor T cell response,CD4+ T cells from PBMC; DR3/DQ Set Peptides,0/2
RSAAVLALL [compound 175],T1D Donor T cell response,CD8+ T cells from PBMC,1/5
same,non-T1D Donor T cell response,CD8+ T cells from PBMC,0/4
same,"IFN-γ secretion, islet-derived T cell lines",[1]; [3],strong
same,"IL-10 secretion, islet-derived T cell lines",[1]; [3],strong
same,"TNF-α secretion, islet-derived T cell lines",[1]; [3],strong
same,islet derived T cell lines response to A2-S peptide pools or to single peptides,"[1]; donor 6551 lines, class I (A2) peptide pools or single peptides, IFNg, TNFa, IL-10 secretion","donor 6551 lines positive for IFNg, TNFa, IL10 secretion"
SANLHGGDLVANYPY [compound 155],T1D Donor T cell response,CD4+ T cells from PBMC; HPAP-DR3 Pool Peptides,0/4
same,non-T1D Donor T cell response,CD4+ T cells from PBMC; HPAP-DR3 Pool Peptides,0/4
"SQGLVDREKGLSAEPGWQA [compound 180, secretory hormone eluted peptide from CHGA, pool SEC DR3]",T1D Donor T cell response,CD4+ T cells from PBMC; [2],0/4
same,non-T1D Donor T cell response,CD4+ T cells from PBMC; [2],1/4
same,IFN-γ ELISpot response of expanded CD4 T cells,CD4+ T cells from PBMC,IFN-γ responses
"SSPLDNKLNVEDVDSTKN [compound 188, secretory hormone eluted peptide from SCG3, pool SEC DR3]",T1D Donor T cell response,CD4+ T cells from PBMC; [2],0/4
same,non-T1D Donor T cell response,CD4+ T cells from PBMC; [2],1/4
same,IFN-γ ELISpot response of expanded CD4 T cells,CD4+ T cells from PBMC,IFN-γ responses
"SVPHFSDEDKDPE [compound 147, non-modified native peptide, pool PTM DR3]",T1D Donor T cell response,CD4+ T cells from PBMC; [4],0/4
same,non-T1D Donor T cell response,CD4+ T cells from PBMC; [4],0/4
"SVPHFXDEDKDPE [147-1, PTM peptide, X=phosphoserine, pool PTM DR3]",T1D Donor T cell response,CD4+ T cells from PBMC; [4],0/4
same,non-T1D Donor T cell response,CD4+ T cells from PBMC; [4],0/4
TPGNALVVDPKKPFRK,T cell recognition by PBMC from a T1D donor (mark E),CD4+ T cells from PBMC,TPGNA LVVDPKKPF RK ^ E
TPGNALVVDPKKPFRK [compound 13],T1D Donor T cell response,CD4+ T cells from PBMC; DR3/DQ Set Peptides,3/4
same,non-T1D Donor T cell response,CD4+ T cells from PBMC; DR3/DQ Set Peptides,1/2
same,IFN-γ ELISpot response of expanded CD4+ T cells,"CD4+ T cells from PBMC; control donor LSLP-074, frequencies ∼10-fold lower than for T1D-004 (Figures 5E, 5F, S5B)",responded
VPGNALVVDPRRPFRK,T cell recognition by PBMC from a T1D donor (mark E),CD4+ T cells from PBMC,VPGNA LVVDPRRPF RK ^ E
VPGNALVVDPRRPFRK [compound 12],T1D Donor T cell response,CD4+ T cells from PBMC; DR3/DQ Set Peptides,1/4
same,non-T1D Donor T cell response,CD4+ T cells from PBMC; DR3/DQ Set Peptides,0/2
VPIDIDKTKVQNIHPVESA [compound 4],T1D Donor T cell response,CD4+ T cells from PBMC; DR3/DQ Set Peptides,0/4
same,non-T1D Donor T cell response,CD4+ T cells from PBMC; DR3/DQ Set Peptides,0/2
VPIDIDKTKVQNIHPVESA [compound 152],T1D Donor T cell response,CD4+ T cells from PBMC; HPAP-DR3 Pool Peptides,0/4
same,non-T1D Donor T cell response,CD4+ T cells from PBMC; HPAP-DR3 Pool Peptides,0/4
WRPSLVPASAENVNKA,T cell recognition by PBMC from a T1D donor (mark E),CD4+ T cells from PBMC,WRPS LVPASAENV NKA ^ E
WRPSLVPASAENVNKA [compound 23],T1D Donor T cell response,CD4+ T cells from PBMC; DR3/DQ Set Peptides,2/4
same,non-T1D Donor T cell response,CD4+ T cells from PBMC; DR3/DQ Set Peptides,0/2
YYNLEKDVKQFRRKDS [peptide 3],T1D Donor T cell response,CD4+ T cells from PBMC; DR3/DQ Set Peptides,0/4
same,non-T1D Donor T cell response,CD4+ T cells from PBMC; DR3/DQ Set Peptides,0/2
YYYIQQDTKGDYQK [peptide 7],T1D Donor T cell response,CD4+ T cells from PBMC; DR3/DQ Set Peptides,0/4
same,non-T1D Donor T cell response,CD4+ T cells from PBMC; DR3/DQ Set Peptides,0/2

# — paper PMC12624573, “The antigen presentation landscape of cytokine-stressed human pancreatic islets” (Cell reports, 2025)
